{
  "source": "patent US11578130B2",
  "about": "“Regulatable chimeric antigen receptor” (Novartis AG, priority 2013, dated 2023)",
  "format_in_all_cases": "in vivo, human",
  "key": {"[1]": {"tested_on": "A/H1N1 strain A/New Jersey/8/76"}, "[2]": {"tested_on": "A/H3N2 strain A/Victoria/361/11", "test": "Clinical trial: HI titers and seroconversion, heterologous A/H3N2 strain"}, "[3]": {"test": "Clinical trial in elderly volunteers: adverse events, safety and tolerability", "conditions": "N = 53"}, "[4]": {"conditions": "RAD001 as compared to placebo cohorts"}},
  "note": "Like-named read-outs stand apart in the source and are kept apart here.",
  "data": [
    {"compound": "CO[C@H]1C[C@@H]2CC[C@@H](C)[C@@](O)(O2)C(=O)C(=O)N2CCCC[C@H]2C(=O)O[C@H]([C@H](C)C[C@@H]2CC[C@@H](OCCO)[C@H](OC)C2)CC(=O)[C@H](C)/C=C(\\C)[C@@H](O)[C@@H](OC)C(=O)[C@H](C)C[C@H](C)/C=C/C=C/C=C/1C", "note": "[RAD001, (1R,9S,12S,15R,16E,18R,19R,21R,23S,24E,26E,28E,30S,32S,35R)-1,18-dihydroxy-12-{(1R)-2-[(1S,3R,4R)-4-(2-hydroxyethoxy)-3-methoxycyclohexyl]-1-methylethyl}-19,30-dimethoxy-15,17,21,23,29,35-hexamethyl-11,36-dioxa-4-aza-tricyclo[30.3.1.04,9]hexatriaconta-16,24,26,28-tetraene-2,3,10,14,20-pentaone]", "values": [
      {"measurement": "Percentage of subjects who seroconvert to heterologous strain 4 weeks after seasonal influenza vaccination, A/H1N1 strain: A/New Jersey/8/76", "setting": "[1]; RAD001 5 mg weekly", "value": 16, "unit": "%"},
      {"measurement": "Percentage of subjects who seroconvert to heterologous strain 4 weeks after seasonal influenza vaccination, A/H1N1 strain: A/New Jersey/8/76", "setting": "[1]; RAD001 20 mg weekly", "value": 8, "unit": "%"},
      {"measurement": "increase in the HI GMT ratios for the heterologous strain", "setting": "[1]; [4]", "value": "higher"},
      {"measurement": "Percentage of subjects who seroconvert to heterologous strain 4 weeks after seasonal influenza vaccination, A/H3N2 strain: A/Victoria/361/11", "setting": "[2]; RAD001 0.5 mg daily", "value": 38, "unit": "%"},
      {"measurement": "Percentage of subjects who seroconvert to heterologous strain 4 weeks after seasonal influenza vaccination, A/H3N2 strain: A/Victoria/361/11", "setting": "[2]; RAD001 5 mg weekly, * p-value < 0.05 versus placebo", "value": 39, "unit": "%*"},
      {"measurement": "Percentage of subjects who seroconvert to heterologous strain 4 weeks after seasonal influenza vaccination, A/H3N2 strain: A/Victoria/361/11", "setting": "[2]; RAD001 20 mg weekly, * p-value < 0.05 versus placebo", "value": 40, "unit": "%*"},
      {"measurement": "increase in the HI GMT ratios for the heterologous strain", "setting": "[2]; [4]", "value": "higher"},
      {"measurement": "H3N2 seroconversion rate, heterologous strain", "setting": "[2]; pooled RAD001 cohorts, versus 20% placebo (p=0.007)", "value": 39, "unit": "%"},
      {"measurement": "Blood cholesterol increased, treatment-related AE", "setting": "[3]; RAD001 0.5 mg daily", "value": "2 (3.8%) n (%)"},
      {"measurement": "Conjunctivitis, treatment-related AE", "setting": "[3]; RAD001 0.5 mg daily", "value": "0 n (%)"},
      {"measurement": "Diarrhea, treatment-related AE", "setting": "[3]; RAD001 0.5 mg daily", "value": "1 (1.9%) n (%)"},
      {"measurement": "Dry mouth, treatment-related AE", "setting": "[3]; RAD001 0.5 mg daily", "value": "0 n (%)"},
      {"measurement": "Dyspepsia, treatment-related AE", "setting": "[3]; RAD001 0.5 mg daily", "value": "0 n (%)"},
      {"measurement": "Erythema, treatment-related AE", "setting": "[3]; RAD001 0.5 mg daily", "value": "0 n (%)"},
      {"measurement": "Fatigue, treatment-related AE", "setting": "[3]; RAD001 0.5 mg daily", "value": "0 n (%)"},
      {"measurement": "Headache, treatment-related AE", "setting": "[3]; RAD001 0.5 mg daily", "value": "0 n (%)"},
      {"measurement": "Insomnia, treatment-related AE", "setting": "[3]; RAD001 0.5 mg daily", "value": "1 (1.9%) n (%)"},
      {"measurement": "Limb discomfort, treatment-related AE", "setting": "[3]; RAD001 0.5 mg daily", "value": "0 n (%)"},
      {"measurement": "Low density lipoprotein increased, treatment-related AE", "setting": "[3]; RAD001 0.5 mg daily", "value": "2 (3.8%) n (%)"},
      {"measurement": "Mouth ulceration, treatment-related AE", "setting": "[3]; RAD001 0.5 mg daily", "value": "6 (11.3%) n (%)"},
      {"measurement": "Mucosal inflammation, treatment-related AE", "setting": "[3]; RAD001 0.5 mg daily", "value": "0 n (%)"},
      {"measurement": "Neutropenia, treatment-related AE", "setting": "[3]; RAD001 0.5 mg daily", "value": "0 n (%)"},
      {"measurement": "Oral pain, treatment-related AE", "setting": "[3]; RAD001 0.5 mg daily", "value": "0 n (%)"},
      {"measurement": "Paresthesia oral, treatment-related AE", "setting": "[3]; RAD001 0.5 mg daily", "value": "2 (3.8%) n (%)"},
      {"measurement": "Patients with AE(s), treatment-related", "setting": "[3]; RAD001 0.5 mg daily", "value": "22 (41.5%) n (%)"},
      {"measurement": "Pruritus, treatment-related AE", "setting": "[3]; RAD001 0.5 mg daily", "value": "0 n (%)"},
      {"measurement": "Stomatitis, treatment-related AE", "setting": "[3]; RAD001 0.5 mg daily", "value": "0 n (%)"},
      {"measurement": "Thrombocytopenia, treatment-related AE", "setting": "[3]; RAD001 0.5 mg daily", "value": "0 n (%)"},
      {"measurement": "Tongue ulceration, treatment-related AE", "setting": "[3]; RAD001 0.5 mg daily", "value": "3 (5.7%) n (%)"},
      {"measurement": "Total AE(s), treatment-related", "setting": "[3]; RAD001 0.5 mg daily", "value": "35 n (%)"},
      {"measurement": "Urinary tract infection, treatment-related AE", "setting": "[3]; RAD001 0.5 mg daily", "value": "0 n (%)"},
      {"measurement": "Blood cholesterol increased, treatment-related AE", "setting": "[3]; RAD001 5 mg weekly", "value": "2 (3.8%) n (%)"},
      {"measurement": "Conjunctivitis, treatment-related AE", "setting": "[3]; RAD001 5 mg weekly", "value": "2 (3.8%) n (%)"},
      {"measurement": "Diarrhea, treatment-related AE", "setting": "[3]; RAD001 5 mg weekly", "value": "4 (7.5%) n (%)"},
      {"measurement": "Dry mouth, treatment-related AE", "setting": "[3]; RAD001 5 mg weekly", "value": "0 n (%)"},
      {"measurement": "Dyspepsia, treatment-related AE", "setting": "[3]; RAD001 5 mg weekly", "value": "3 (5.7%) n (%)"},
      {"measurement": "Erythema, treatment-related AE", "setting": "[3]; RAD001 5 mg weekly", "value": "2 (3.8%) n (%)"},
      {"measurement": "Fatigue, treatment-related AE", "setting": "[3]; RAD001 5 mg weekly", "value": "2 (3.8%) n (%)"},
      {"measurement": "Headache, treatment-related AE", "setting": "[3]; RAD001 5 mg weekly", "value": "2 (3.8%) n (%)"},
      {"measurement": "Insomnia, treatment-related AE", "setting": "[3]; RAD001 5 mg weekly", "value": "2 (3.8%) n (%)"},
      {"measurement": "Limb discomfort, treatment-related AE", "setting": "[3]; RAD001 5 mg weekly", "value": "2 (3.8%) n (%)"},
      {"measurement": "Low density lipoprotein increased, treatment-related AE", "setting": "[3]; RAD001 5 mg weekly", "value": "1 (1.9%) n (%)"},
      {"measurement": "Mouth ulceration, treatment-related AE", "setting": "[3]; RAD001 5 mg weekly", "value": "2 (3.8%) n (%)"},
      {"measurement": "Mucosal inflammation, treatment-related AE", "setting": "[3]; RAD001 5 mg weekly", "value": "0 n (%)"},
      {"measurement": "Neutropenia, treatment-related AE", "setting": "[3]; RAD001 5 mg weekly", "value": "0 n (%)"},
      {"measurement": "Oral pain, treatment-related AE", "setting": "[3]; RAD001 5 mg weekly", "value": "2 (3.8%) n (%)"},
      {"measurement": "Paresthesia oral, treatment-related AE", "setting": "[3]; RAD001 5 mg weekly", "value": "0 n (%)"},
      {"measurement": "Patients with AE(s), treatment-related", "setting": "[3]; RAD001 5 mg weekly", "value": "20 (37.7%) n (%)"},
      {"measurement": "Pruritus, treatment-related AE", "setting": "[3]; RAD001 5 mg weekly", "value": "2 (3.8%) n (%)"},
      {"measurement": "Stomatitis, treatment-related AE", "setting": "[3]; RAD001 5 mg weekly", "value": "0 n (%)"}
    ]}
  ]
}
